In ChEMBL document CHEMBL3860102, “Structure-Cytotoxicity Relationships of Analogues of N14-Desacetoxytubulysin H” (J Med Chem, 2016):

Assays:
[1] = Cytotoxicity against human HCT116 cells incubated for 72 hrs by alamar blue abased assay; format: functional; settings: HCT-116, 72 h
[2] = Cytotoxicity against human DU145 cells incubated for 72 hrs by alamar blue abased assay; format: functional; settings: DU-145, 72 h
[3] = Cytotoxicity against human MDA-MB-231 cells incubated for 72 hrs by alamar blue abased assay; format: functional; settings: MDA-MB-231, 72 h
[4] = Cytotoxicity against human SW480 cells; format: functional, cell-based
[5] = Cytotoxicity against human T98 cells; format: functional, cell-based
[6] = Cytotoxicity against human KB-3-1 cells; format: functional, cell-based
[7] = Cytotoxicity against mouse L929 cells; format: functional, cell-based

CC[C@H](C)[C@H](NC(=O)[C@@H](C(C)C)N(C)CC)C(=O)N(C)[C@H](C[C@@H](OC(C)=O)c1nc(C(=O)N[C@@H](Cc2ccccc2)C[C@H](C)C(=O)O)cs1)C(C)C
GI50 [1]: 1640 nM
GI50 [2]: 2940 nM
GI50 [3]: 3020 nM

CC[C@H](C)[C@H](NC(=O)[C@H]1CCCN1C)C(=O)N(C)[C@H](C[C@@H](OC(C)=O)c1nc(C(=O)N[C@@H](Cc2ccccc2)C[C@H](C)C(=O)O)cs1)C(C)C
GI50 [1]: 0.6 nM
GI50 [2]: 1 nM
GI50 [3]: 3.3 nM

CCCN(C)[C@@H](C(=O)N[C@H](C(=O)N(C)[C@H](C[C@@H](OC(C)=O)c1nc(C(=O)N[C@@H](Cc2ccccc2)C[C@H](C)C(=O)O)cs1)C(C)C)[C@@H](C)CC)C(C)C
GI50 [1]: > 3330 nM
GI50 [2]: > 3330 nM
GI50 [3]: > 3330 nM

CC[C@H](C)[C@H](NC(=O)[C@@H](C(C)C)N(C)C)C(=O)N(C)[C@H](C[C@@H](OC(C)=O)c1nc(C(=O)N[C@@H](Cc2ccccc2)C[C@H](C)C(=O)O)cs1)C(C)C
GI50 [1]: 4.4 nM
GI50 [2]: 9.6 nM
GI50 [3]: 10.7 nM

CC[C@H](C)[C@H](NC(=O)[C@H]1CC2CCN1CC2)C(=O)N(C)[C@H](C[C@@H](OC(C)=O)c1nc(C(=O)N[C@@H](Cc2ccccc2)C[C@H](C)C(=O)O)cs1)C(C)C
GI50 [1]: 214 nM
GI50 [2]: 428 nM
GI50 [3]: 196 nM

CC[C@H](C)[C@H](NC(=O)[C@H]1COCCN1)C(=O)N(C)[C@H](C[C@@H](OC(C)=O)c1nc(C(=O)N[C@@H](Cc2ccccc2)C[C@H](C)C(=O)O)cs1)C(C)C
GI50 [1]: 1380 nM
GI50 [2]: 2280 nM
GI50 [3]: > 3330 nM

CC[C@H](C)[C@H](NC(=O)[C@H]1CCCCN1C(C)=O)C(=O)N(C)[C@H](C[C@@H](OC(C)=O)c1nc(C(=O)N[C@@H](Cc2ccccc2)C[C@H](C)C(=O)O)cs1)C(C)C
GI50 [1]: 798 nM
GI50 [2]: > 3330 nM
GI50 [3]: > 3330 nM

CC[C@H](C)[C@H](NC(=O)[C@@H](Cc1ccccc1)N(C)C)C(=O)N(C)[C@H](C[C@@H](OC(C)=O)c1nc(C(=O)N[C@@H](Cc2ccccc2)C[C@H](C)C(=O)O)cs1)C(C)C
GI50 [1]: 103 nM
GI50 [2]: 134 nM
GI50 [3]: 225 nM

CC[C@H](C)[C@H](NC(=O)[C@@H](C)N(C)C)C(=O)N(C)[C@H](C[C@@H](OC(C)=O)c1nc(C(=O)N[C@@H](Cc2ccccc2)C[C@H](C)C(=O)O)cs1)C(C)C
GI50 [1]: 2.5 nM
GI50 [2]: 4.5 nM
GI50 [3]: 3.9 nM

CC[C@H](C)[C@H](NC(=O)[C@H]1CCCCN1C)C(=O)N(C)[C@H](C[C@@H](O)c1nc(C(=O)N[C@@H](Cc2ccccc2)C[C@H](C)C(=O)O)cs1)C(C)C
GI50 [1]: 110 nM
GI50 [2]: 363 nM
GI50 [3]: 169 nM

CC[C@H](C)[C@H](NC(=O)[C@H]1CCSCN1C)C(=O)N(C)[C@H](C[C@@H](OC(C)=O)c1nc(C(=O)N[C@@H](Cc2ccccc2)C[C@H](C)C(=O)O)cs1)C(C)C
GI50 [1]: 64.2 nM
GI50 [2]: 136 nM
GI50 [3]: 125 nM

CC[C@H](C)[C@H](NC(=O)[C@H]1CCCCN1C)C(=O)N(C)[C@H](C[C@@H](OC(C)=O)c1nc(C(=O)N[C@@H](Cc2ccccc2)C[C@H](C)C(=O)O)cs1)C(C)C
GI50 [1]: 0.62 nM
IC50 [4]: 0.02 nM
IC50 [5]: 1.6 nM
IC50 [6]: 0.19 nM
GI50 [2]: 0.71 nM
IC50 [7]: 0.34 nM
GI50 [3]: 1.14 nM

CC[C@H](C)[C@H](NC(=O)[C@H]1CCCCN1C)C(=O)N(C)[C@H](C[C@@H](OC(C)=O)c1nc(C(=O)N[C@@H](Cc2ccccc2)C[C@H](C)C(N)=O)cs1)C(C)C
GI50 [1]: 0.737 nM
GI50 [2]: 0.948 nM
GI50 [3]: 1.06 nM

CC[C@H](C)[C@H](NC(=O)[C@H]1CSCN1C)C(=O)N(C)[C@H](C[C@@H](OC(C)=O)c1nc(C(=O)N[C@@H](Cc2ccccc2)C[C@H](C)C(=O)O)cs1)C(C)C
GI50 [1]: 352 nM
GI50 [2]: 1120 nM
GI50 [3]: 816 nM

CC[C@H](C)[C@H](NC(=O)[C@H]1CCCCN1C)C(=O)N(C)[C@H](C[C@@H](OC(C)=O)c1nc(C(=O)N[C@@H](Cc2ccccc2)C[C@H](C)C(=O)NN)cs1)C(C)C
GI50 [1]: 6.09 nM
GI50 [2]: 6.63 nM
GI50 [3]: 5.24 nM

CC[C@H](C)[C@H](NC(=O)[C@H]1COCCN1C)C(=O)N(C)[C@H](C[C@@H](OC(C)=O)c1nc(C(=O)N[C@@H](Cc2ccccc2)C[C@H](C)C(=O)O)cs1)C(C)C
GI50 [1]: 408 nM
GI50 [2]: 808 nM
GI50 [3]: 998 nM

CC[C@H](C)[C@H](NC(=O)[C@H]1C[C@H](C)CCN1C)C(=O)N(C)[C@H](C[C@@H](OC(C)=O)c1nc(C(=O)N[C@@H](Cc2ccccc2)C[C@H](C)C(=O)O)cs1)C(C)C
GI50 [1]: 0.5 nM
GI50 [2]: 0.9 nM
GI50 [3]: 3.4 nM

CC[C@H](C)[C@H](NC(=O)[C@H]1CCCCN1)C(=O)N(C)[C@H](C[C@@H](OC(C)=O)c1nc(C(=O)N[C@@H](Cc2ccccc2)C[C@H](C)C(=O)OC)cs1)C(C)C
GI50 [1]: 3.68 nM
GI50 [2]: 11.5 nM
GI50 [3]: 9.39 nM

CC[C@H](C)[C@H](NC(=O)[C@@H]1CC(C)(C)CCN1C)C(=O)N(C)[C@H](C[C@@H](OC(C)=O)c1nc(C(=O)N[C@@H](Cc2ccccc2)C[C@H](C)C(=O)O)cs1)C(C)C
GI50 [1]: 88 nM
GI50 [2]: 50.6 nM
GI50 [3]: 118 nM

CC[C@H](C)[C@H](NC(=O)[C@H]1CCCCN1C)C(=O)N(C)[C@H](C[C@@H](OC(C)=O)c1nc(C(=O)N[C@H](CN)Cc2ccccc2)cs1)C(C)C
GI50 [1]: 5.9 nM
GI50 [2]: 2.7 nM
GI50 [3]: 9 nM

CC[C@H](C)[C@H](NC(=O)[C@H]1CCCCN1)C(=O)N(C)[C@H](C[C@@H](OC(C)=O)c1nc(C(=O)N[C@@H](Cc2ccccc2)C[C@H](C)C(=O)O)cs1)C(C)C
GI50 [1]: 21.3 nM
GI50 [2]: 46.2 nM
GI50 [3]: 19.6 nM

CC[C@H](C)[C@H](NC(=O)[C@@H](c1ccccc1)N(C)C)C(=O)N(C)[C@H](C[C@@H](OC(C)=O)c1nc(C(=O)N[C@@H](Cc2ccccc2)C[C@H](C)C(=O)O)cs1)C(C)C
GI50 [1]: 52.5 nM
GI50 [2]: 82.3 nM
GI50 [3]: 111 nM

CC[C@H](C)[C@H](NC(=O)[C@H]1CCCCN1CCN)C(=O)N(C)[C@H](C[C@@H](OC(C)=O)c1nc(C(=O)N[C@@H](Cc2ccccc2)C[C@H](C)C(=O)O)cs1)C(C)C
GI50 [1]: 174 nM
GI50 [2]: 176 nM
GI50 [3]: 243 nM

CC[C@H](C)[C@H](NC(=O)[C@H]1CSCCN1C)C(=O)N(C)[C@H](C[C@@H](OC(C)=O)c1nc(C(=O)N[C@@H](Cc2ccccc2)C[C@H](C)C(=O)O)cs1)C(C)C
GI50 [1]: 69.3 nM
GI50 [2]: 166 nM
GI50 [3]: 226 nM

CC[C@H](C)[C@H](NC(=O)[C@H]1CC(C)(C)CCN1C)C(=O)N(C)[C@H](C[C@@H](OC(C)=O)c1nc(C(=O)N[C@@H](Cc2ccccc2)C[C@H](C)C(=O)O)cs1)C(C)C
GI50 [1]: 1.8 nM
GI50 [2]: 1.3 nM
GI50 [3]: 3.9 nM

CC[C@H](C)[C@H](NC(=O)[C@H]1C[C@@H](C)CN1C)C(=O)N(C)[C@H](C[C@@H](OC(C)=O)c1nc(C(=O)N[C@@H](Cc2ccccc2)C[C@H](C)C(=O)O)cs1)C(C)C
GI50 [1]: 0.8 nM
GI50 [2]: 1.7 nM
GI50 [3]: 4.2 nM

CC[C@H](C)[C@H](NC(=O)C1(C)CCCCN1C)C(=O)N(C)[C@H](C[C@@H](OC(C)=O)c1nc(C(=O)N[C@@H](Cc2ccccc2)C[C@H](C)C(=O)O)cs1)C(C)C (some centres undefined)
GI50 [2]: 1.2 nM

CC[C@H](C)[C@H](NC(=O)[C@H]1CCc2ccccc2N1C)C(=O)N(C)[C@H](C[C@@H](OC(C)=O)c1nc(C(=O)N[C@@H](Cc2ccccc2)C[C@H](C)C(=O)O)cs1)C(C)C
GI50 [1]: > 3330 nM
GI50 [2]: > 3330 nM
GI50 [3]: > 3330 nM

CC[C@H](C)[C@H](NC(=O)[C@@H](CC(C)C)N(C)C)C(=O)N(C)[C@H](C[C@@H](OC(C)=O)c1nc(C(=O)N[C@@H](Cc2ccccc2)C[C@H](C)C(=O)O)cs1)C(C)C
GI50 [1]: 8.2 nM
GI50 [2]: 17 nM
GI50 [3]: 19.1 nM
